Oligonucleotides are written 5' to 3', each unit as a sugar letter and its base; * is a phosphorothioate linkage, no mark a phosphodiester; rarer units and linkages stand in square brackets, end groups in braces. Plain capitals give the bases only. Non-standard residues stand in square brackets, D forms with d. {GalNAc-NHC6} = GalNAc ligand attached through an NHC6 linker; Trp(6-F) = N[C@@H](Cc1c[nH]c2cc(F)ccc12)C(=O)O; m = 2'-O-methyl; f = 2'-fluoro
How the values were obtained:
complement activation = conditions: relative to compstatin amidated at the C-terminus; based on published data; cited from earlier work
C3 protein [1] = assay: Serum C3 protein (ELISA) in non-human primates after single SC dose; type: in vivo, cynomolgus monkeys; conditions: for reduction of serum C3 protein vs baseline: by day 29
Experimental: (§1) Naive male cynomolgus monkeys (n=3 in each group) were subcutaneously (SC) administered a single dose of either 3 mg/kg, 10 mg/kg, or 30 mg/kg siRNA 58, or vehicle (phosphate buffered saline) on day 1.
(§2) Serum samples were scheduled to be collected on days −5, −1, 3, 8, 15, 22, 29, 40, 57, 67, 82, 97, 112, 127, 142, 157, 172 and 184 (where negative values correspond to days before injection with siRNA 58 or vehicle). The level of C3 protein in serum was measured using an ELISA assay. Additionally, serum samples were also analyzed for alternative complement pathway activity (AH50). Values at day −1 value were used as the baseline.

C3 mRNA [2] = assay: Liver biopsy C3 mRNA (quantitative PCR) in non-human primates after single SC dose; type: in vivo, cynomolgus monkeys; conditions: for reduction of liver C3 mRNA vs vehicle control: by day 15
Experimental: as §1
Liver needle biopsies were performed on days 15, 46 and 79. The level of C3 mRNA in the samples was measured using a quantitative PCR assay. C3 mRNA level was normalized to the level of ActB mRNA in these experiments.

[3] = test system: alternative complement pathway; assay: Serum alternative complement pathway activity (AH50) in non-human primates; type: in vivo, cynomolgus monkeys
Experimental: as §1, §2

C3 protein [4] = assay: Plasma C3 protein (ELISA) in rats after SC administration; type: in vivo, Sprague-Dawley rats
Experimental: (§3) Dosing: Animals from groups 1-3 and 8 were dosed with a single subcutaneous injection of PBS vehicle or 3, 10 or 30 mg/kg siRNA 59, formulated at a concentration of 0.6, 2 and 6 mg/ml in PBS, respectively, in a dosing volume of 5 ml. Animals from groups 4-7 were dosed with 3× daily subcutaneous injection of […] siRNA 59, formulated at a concentration of 0.2, 0.6 and 2 mg/ml in PBS, respectively, in a dosing volume of 5 ml.
(§4) Sampling: For PD analyses, plasma and serum samples were collected at baseline and days 3, 8, 15, 22 and 29 post-dose. Plasma samples were collected at 15 minutes and 1, 4, 8, 24, 48 and 72 hours post-dose. Liver samples were collected at necropsy on days 3 and 30 post-dose.
Bioanalytical Methods: Plasma PD samples were analyzed for concentrations of C3 protein at Confluence Discovery Technologies (MO, USA) using a double antibody sandwich ELISA kit according to the manufacturer's instructions (Eagle Biosciences; plasma dilution of 1:10,000).

alternative pathway = assay: Serum alternative pathway complement activation (AP Wieslab assay, C5b-9) in rats; type: in vivo, Sprague-Dawley rats
Experimental: as §3, §4
Serum PD samples were analyzed for alternative pathway (AP) complement activation at Confluence Discovery Technologies (MO, USA) using the AP Wieslab assay (Eagle Biosciences, Cat #COMPL AP330).
Alternative pathway complement activity: Sera from each animal treated with single dose siRNA 59 and vehicle, as well as the multi-dose siRNA (−) control-treated animals, were used in the AP Wieslab assay, an ELISA-based assay that measures formation of C5b-9 following alternative pathway activation, to assess complement activation (FIG. 8). […] Data represents mean±SEM (n=3). Serum AP complement activity was highly variable across the control groups.

C3 mRNA [5] = assay: Liver C3 mRNA (RT-qPCR) in rats; type: in vivo, Sprague-Dawley rats; conditions: for mean C3 expression in liver, % of gene expression in the vehicle treated arm: 30 mg/kg
Experimental: as §3, §4
PD tissue samples were analyzed for C3 mRNA levels using a semi-validated RT-qPCR method at EpigenDx (MA, USA).

[6] = Tolerability observations in rats; type: in vivo, Sprague-Dawley rats
Experimental: as §3

[7] = single SC dose 3, 10 or 30 mg/kg
[8] = SC 3, 10, 30 mg/kg, single or 3x daily

Substance: Ac-ICVWQDWGAHRCdT-COOH [AC-V4W/H9A/T13dT-OH]
- Activity over compstatin (complement activation): 55× more

Substance: Ac-ICVYQDWGAHRCT-CONH2 [AC-V4Y/H9A]
- Activity over compstatin (complement activation): 14× more

Substance: H-GICV(6fW)QD(6fW)GAHRCTN-COOH (H-GICV[Trp(6-F)]QD[Trp(6-F)]GAHRCTN-OH; not fully specified (bridges); cysteine pairing not given here) [+GA/4(6fW)/W7(6fW)H9A+N-OH]
- Activity over compstatin (complement activation): 126× more

Substance: siRNA 58: siRNA 53 further modified; sense SEQ ID NO: 325 / antisense SEQ ID NO: 275; GalNAc conjugated via NHC6 linker at 5′ end of sense strand (sense {GalNAc-NHC6}-mC*mC*fAmAmCmUfAfCfAmUmGfAmAmCmCmUfA*mC*mA; antisense mU*fG*mUmAmGmGmUmUmCmAmUmGmUfAmGmUmUmGmG*mC*mU) [siRNA 53 further modified; GalNAc conjugated via NHC6 linker at 5′ end of sense strand]
- reduction of serum C3 protein vs baseline (C3 protein [1]; single SC dose 3 mg/kg): 77%
- reduction of serum C3 protein vs baseline (C3 protein [1]; single SC dose 10 mg/kg): 85%
- reduction of serum C3 protein vs baseline (C3 protein [1]; single SC dose 30 mg/kg): 90%
- duration of serum C3 protein reduction (C3 protein [1]; [7]): sustained out to day 67
- reduction of liver C3 mRNA vs vehicle control (C3 mRNA [2]; single SC dose 3 mg/kg): 89%
- reduction of liver C3 mRNA vs vehicle control (C3 mRNA [2]; single SC dose 10 mg/kg): 97%
- reduction of liver C3 mRNA vs vehicle control (C3 mRNA [2]; single SC dose 30 mg/kg): 99%
- duration of liver C3 mRNA reduction (C3 mRNA [2]; [7]): sustained at day 46
- reduction of alternative complement pathway activity (AH50) vs baseline ([3]; single SC dose 3 mg/kg, by day 29): 65%
- reduction of alternative complement pathway activity (AH50) vs baseline ([3]; single SC dose 3 mg/kg, day 67): 68%
- reduction of alternative complement pathway activity (AH50) vs baseline ([3]; single SC dose 10 mg/kg, by day 29): 82%
- reduction of alternative complement pathway activity (AH50) vs baseline ([3]; single SC dose 10 mg/kg, day 67): 91%
- reduction of alternative complement pathway activity (AH50) vs baseline ([3]; single SC dose 30 mg/kg, by day 29): 92%
- reduction of alternative complement pathway activity (AH50) vs baseline ([3]; single SC dose 30 mg/kg, day 67): 98%

Substance: siRNA 59: siRNA 33 further modified; sense SEQ ID NO: 326 / antisense SEQ ID NO: 260; GalNAc conjugated via NHC6 linker at 5′ end of sense strand (sense {GalNAc-NHC6}-mU*mC*fCmAmAmGfCfCfUmUmGfGmCmUmCmAfA*mU*mA; antisense mU*fA*mUmUmGmAmGmCmCmAmAmGmGfCmUmUmGmGmA*mA*mC) [siRNA 33 further modified; GalNAc conjugated via NHC6 linker at 5′ end of sense strand]
- recovery of plasma C3 protein to baseline levels (C3 protein [4]; 3 mg/kg dose group, day 29): Full recovery
- reduction in C3 plasma protein concentration (C3 protein [4]; 10 mg/kg dose): ~90%
- plasma C3 concentration, single dose treatment vs QDx3 equivalent dose groups (C3 protein [4]; 3, 10, 30 mg/kg total dose): comparable
- recovery of plasma C3 protein to baseline levels (C3 protein [4]; 10 and 30 mg/kg dose groups, final blood collection on day 29): did not appear to have fully recovered
- change in plasma C3 concentration across the dose groups (C3 protein [4]; [8]): clear dose-dependent response
- time at which maximal C3 protein reduction in plasma was achieved (C3 protein [4]; all dose groups): ≤ 8 study day
- change in AP Wieslab activity (alternative pathway; dose groups other than high-dose (3 and 10 mg/kg)): No change
- mean reduction in alternative pathway activity (alternative pathway; high dose group (30 mg/kg single SC), day 8 to day 15 post-dose): approximately 90%
- mean C3 expression in liver, % of gene expression in the vehicle treated arm (C3 mRNA [5]; day 3): 3%
- mean C3 expression in liver, % of gene expression in the vehicle treated arm (C3 mRNA [5]; day 30): 25%
- recovery of liver C3 expression (C3 mRNA [5]; all treatment animals, study termination at day 30): None of the treatment animals had fully recovered
- reduction in C3 mRNA in liver across doses (C3 mRNA [5]; both terminal timepoints (day 3 and day 30)): dose-dependent manner
- level of liver C3 mRNA vs vehicle control (C3 mRNA [5]; single dose PK animal groups, 3 days following treatment): significantly reduced
- tolerability of the doses used [6, 8]: well-tolerated
- body weight following TA administration ([6]; all treatment groups): no loss in body weight
- signs of distress or behavioral changes ([6]; all treatment groups): No signs of distress or behavioral changes
